Target: T1, SGLT2 (Homo sapiens, UniProt P31639)
T1 construct: expressed in transfected cells
T1 sequence (P31639 1-672): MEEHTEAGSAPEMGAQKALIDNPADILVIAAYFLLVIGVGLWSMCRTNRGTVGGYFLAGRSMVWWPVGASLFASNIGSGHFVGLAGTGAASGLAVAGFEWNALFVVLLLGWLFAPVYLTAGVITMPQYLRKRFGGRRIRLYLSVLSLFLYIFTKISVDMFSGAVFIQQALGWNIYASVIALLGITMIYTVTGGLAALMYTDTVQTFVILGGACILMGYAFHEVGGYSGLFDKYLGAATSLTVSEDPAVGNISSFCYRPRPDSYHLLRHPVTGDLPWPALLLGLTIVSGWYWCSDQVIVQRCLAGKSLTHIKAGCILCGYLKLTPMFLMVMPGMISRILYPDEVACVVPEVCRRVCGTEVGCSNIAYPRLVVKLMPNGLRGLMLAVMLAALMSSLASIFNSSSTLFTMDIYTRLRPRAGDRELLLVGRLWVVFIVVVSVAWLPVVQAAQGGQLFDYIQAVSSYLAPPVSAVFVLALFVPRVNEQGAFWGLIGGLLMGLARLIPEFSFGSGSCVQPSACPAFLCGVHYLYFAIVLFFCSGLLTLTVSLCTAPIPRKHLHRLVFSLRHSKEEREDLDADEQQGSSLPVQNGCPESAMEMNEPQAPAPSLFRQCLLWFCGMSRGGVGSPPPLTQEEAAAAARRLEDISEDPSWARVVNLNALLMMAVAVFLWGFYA
Assay: Applicant's preliminary study of SGLT2 inhibition, intracellular retention and activity recovery
Type: cell-based

Amount of drug remaining in the cells (after culturing for 24 hours, compared to dapagliflozin and ipragliflozin): significantly higher | Change in inhibition after pretreatment (pretreatment for up to two hours, preliminary study): no change in inhibition
SMILES: OC[C@H]1O[C@@H](c2cc(Cc3ccc(C4CC4)cc3)c(Cl)c3c2CCO3)[C@H](O)[C@@H](O)[C@@H]1O [Enavogliflozin, (2S,3R,4R,5S,6R)-2-(7-chloro-6 (4-cyclopropylbenzyl)-2,3-dihydrobenzofuran-4-yl)-6-(hydroxymethyl)tetrahydro-2H-pyran-3,4,5-triol]
Inhibition mechanism of SGLT2 (Dixon plot and Replot) (preliminary study): reversible competitive inhibition mechanism

Source: US20260124170A1, “PHARMACEUTICAL COMPOSITION COMPRISING METABOLITE OF ENAVOGLIFLOZIN, AND USE THEREOF” (DAEWOONG PHARMACEUTICAL CO., LTD., priority 2022, published 2026)
